Patent publication US11771703B2, “Targeted epigenetic therapy against distal regulatory element of TGFβ2 expression” (The Johns Hopkins University, priority 2017, dated 2023)
“Also recorded” adds a separate entry of the source. Numbered stars: 1 amine (or outer) side, 2 acyl side, 3 side chain; on linkers, the order of the positions; unused ones are H or OH. Bridge positions count the residues as written; N and C are the ends. Square brackets hold non-standard residues; d marks the D form. Peptide text beside a SMILES is read from it. I, II: the chains in the order shown. Actinocin(9to1) = Cc1c2oc3c(C)ccc(C(=O)[*:1])c3nc-2c(C(=O)[*:2])c(N)c1=O; NMeV = CN[C@H](C(=O)O)C(C)C; Sar = CNCC(=O)O

How the values were obtained:
[1] = system: TGFβ2 mRNA expression in SSc fibroblasts; assay: TGFβ2 mRNA expression in primary dermal control and SSc fibroblasts, RT-qPCR; type: cell-based, human; details: for TGFβ2 mRNA expression upon stimulation with cytokine/ligand: exogenous stimulation of fibroblasts; for TGFβ2 mRNA expression in SSc fibroblasts under treatment: SSc fibroblasts vs controls, serum-deprived, SGC-CBP30 72 hours, actinomycin D 12 hours; for TGFβ2 mRNA expression in SSc fibroblasts after drug removal: 72 hours treatment, then drug removal
Method: (§1) To test this hypothesis, it was first validated whether primary dermal SSc fibroblast lines established from dermal biopsies maintained stable gene expression differences at baseline. Six dermal fibroblasts lines from SSc patients and five dermal fibroblast lines from healthy controls were cultured in serum-deprived conditions (DMEM+1% FCS) for 48 hours, followed by mRNA isolation. RNAseq analysis indicated significant transcriptomic differences (FDR<0.05) with heightened expression of extracellular matrix genes (P<1E-9) in SSc fibroblasts (FIG. 1A). By RT-qPCR, elevated expression of pro-fibrotic genes, such as COL1A1 and SERPINH1 (FIG. 1B), were independently validated. TGFβ expression, the dominant pro-fibrotic cytokine, was also assessed. […] This indicated transcriptional upregulation of TGFβ2 in SSc fibroblasts.
Since heightened TGFβ2 signaling drives collagen expression in SSc cells, the possible mechanisms of heightened TGFβ2 ligand expression in SSc fibroblasts, was investigated. First, it was determined if SSc fibroblasts were actively transcribing TGFβ2 mRNA by treating SSc or control fibroblasts with the transcriptional inhibitor actinomycin D for 12 hours, followed by mRNA isolation and RT-qPCR.
Second, it was determined if autocrine TGFβ2 signaling drives the steady-state differences in TGFβ2 mRNA expression in SSc fibroblasts. Cells were treated with isotype control or αTGFβ2ab in the presence or absence of saturating levels of exogenous TGFβ2 ligand (10 ng/mL), followed by mRNA isolation and RT-qPCR.
Third, pharmacological acetyltransferase inhibitors were used to support the role of enhancers in TGFβ2 expression and to identify therapeutic strategies for SSc. Bromodomain inhibitor SGC-CBP30 specifically suppresses the acetyltransferase activity of P300. […] This indicated some form of epigenetic memory that re-activates the TGFβ2 enhancer in SSc fibroblasts.

TGFβ1 mRNA expression = TGFβ1 mRNA expression in fibroblasts, RT-qPCR; type: cell-based, human; details: fibroblasts under treatment
TGFβ3 mRNA expression = TGFβ3 mRNA expression in fibroblasts, RT-qPCR; type: cell-based, human; details: fibroblasts under treatment
[2] = system: collagen expression in SSc fibroblasts; assay: Collagen / fibrotic synthetic repertoire (FSR) expression in SSc fibroblasts, RT-qPCR; type: cell-based, human
Method: as §1
This provided evidence that autocrine TGFβ2 signaling drives high collagen expression in SSc. To test this, the activity of ALK5, a TGFβ receptor kinase required by all TGFβ isoforms, was inhibited. ALK5 inhibition normalized collagen expression in SSc fibroblasts (FIG. 1E, P<0.05).

TGFβ2 protein = TGFβ2 protein expression in SSc fibroblasts (western blot); type: cell-based, human
Method: FIG. 1A is a heatmap. Primary control and SSc fibroblasts were cultured ex vivo under serum deprived conditions (DMEM+1% FCS). Unsupervised hierarchical clustering was performed on genes with significant mRNA expression differences (FDR<0.05) assessed by RNA-seq on primary control and SSc fibroblasts. Top ranked GO term result for each gene cluster is indicated on the left of the heatmap. FIG. 1B are plots showing mRNA transcript levels measured by RT-qPCR. FIG. 1C: Transcript differences were correlated with protein expression by western blot under same culture conditions. FIG. 1D: Effects of TGFβ2 ligand stimulation on collagen expression was assessed in SSc fibroblasts. FIG. 1E: Effects of autocrine TGFβ2 signaling on mRNA expression of collagen was assessed through treatment of control and SSc fibroblasts with anti-TGFβ2 neutralizing antibody, followed by RT-qPCR. FIG. 1F: Effects of autocrine TGFβ2 stimulation on mRNA expression of TGFβ2 was assessed through treatment of control and SSc fibroblasts with combinations of anti-TGFBβ2 neutralizing antibody and exogenous TGFβ2 ligand ([…]). […]

[3] = system: TGFB2 enhancer (Enhancer 4514); assay: ChIP-qPCR occupancy (P300, BRD4, H3K27ac) at the TGFB2 enhancer; type: cell-based, human
Text: (§2) The negative enantiomer of JQ1 was used as a negative control. […] In FIGS. 4G and 4H, BRD4 inhibition with JQ1 normalizes TGFβ2 protein and collagen mRNA expression in SSc fibroblasts. In FIGS. 4I, 4J and 4K, JQ1 treatment normalizes chromatin accessibility, H3K27ac and BRD4 occupancy at the TGFB2 enhancer in SSc fibroblasts. […] FIG. 4M: Heatmap of unsupervised hierarchical clustering of differentially expressed genes between vehicle or JQ1-treated control or SSc fibroblasts by RNA-seq (N=2). Rows represent differentially expressed genes between vehicle-treated control and SSc fibroblasts (FDR<0.05). Differences in expression of these genes are mitigated in SSc fibroblasts upon JQ1 treatment. […] Blue and red bars represent control and SSc fibroblasts, respectively. Ncontrol=5 and NSSc=6. Lower and upper margins of each bar indicate 25th and 75th percentiles, respectively; the internal line indicates the mean and whiskers indicate the range. Black points represent individual samples. All mRNA levels were normalized to GAPDH mRNA levels, respectively. All experiments other than RNA-seq and ATAC-qPCR were repeated at least twice with similar results.
Detecting activation status of TGFβ2 enhancer: To determine the activation status of the enhancer for TGFβ2 expression, chromatin immunoprecipitation was performed, followed by quantitative PCR (CHIP-qPCR), using primers that were uniquely designed based on ATAC-seq data for primary fibroblasts and published ENCODE data. The current method of detecting the activation status of TGFβ2 enhancer was implemented on primary human fibroblast cell lines established from dermal biopsies of normal controls or Scleroderma patients. However, the current method is applicable to adherent or non-adherent cells from tissue or blood of subjects (e.g., human patients).
To determine if Enhancer 4514 was biologically functional, a three-pronged approach was taken. First, active and functional enhancers are strongly associated with H3K27ac histone modifications with heightened occupancy of P300 (histone acetyltransferase) (Cato E et al. (2013) Cell Molecular Cell Reviews. 49:825-837). Thus, chromatin immunoprecipitation was used followed by qPCR (ChIP-qPCR) to determine the level of H3K27ac and P300 at Enhancer 4514 in SSc and control fibroblasts under baseline serum-deprived conditions. […] Furthermore, moderately higher levels of phosphorylated SMAD2 occupancy was found at enhancer 4514 in SSc.

[4] = system: TGFB2 enhancer (Enhancer 4514); assay: Chromatin accessibility at the TGFB2 enhancer (ATAC); type: cell-based, human; details: SSc fibroblasts under treatment
Text: as §2
To test this hypothesis, an RNA-seq and Assay for Transposase-Accessible Chromatin Sequencing (ATAC-seq) were performed on three primary control fibroblast lines and three primary SSc fibroblast lines^7. […]

SSc fibroblasts = assay: RNA-seq transcriptome of vehicle or JQ1-treated control or SSc fibroblasts; type: cell-based, human
Text: as §2, with “All experiments other than RNA-seq and ATAC-qPCR were repeated at least twice with similar results.” left out
To test this hypothesis, it was first validated whether primary dermal SSc fibroblast lines established from dermal biopsies maintained stable gene expression differences at baseline. […] TGFβ expression, the dominant pro-fibrotic cytokine, was also assessed. […]

TGFB2 enhancer = details: Chem-seq database GSE44098, GSE43743; cited from earlier work
Scleroderma cells = assay: Cell toxicity of CBP/P300 inhibitor treatment
[5] = SSc fibroblasts under treatment
[6] = SSc fibroblasts, 72 hours treatment then removal

Molecule: TNFα
- TGFβ2 mRNA expression upon stimulation with cytokine/ligand [1]: increased TGFβ2 expression; also recorded: induces TGFB2 mRNA expression

Molecule: Cc1c2oc3c(C)ccc(C(=O)N[C@@H]4C(=O)N[C@H](C(C)C)C(=O)N5CCC[C@H]5C(=O)N(C)CC(=O)N(C)[C@@H](C(C)C)C(=O)O[C@@H]4C)c3nc-2c(C(=O)N[C@@H]2C(=O)N[C@H](C(C)C)C(=O)N3CCC[C@H]3C(=O)N(C)CC(=O)N(C)[C@@H](C(C)C)C(=O)O[C@@H]2C)c(N)c1=O [actinomycin D] (I: T[dV]P[Sar][NMeV] / II: T[dV]P[Sar][NMeV]; ester I:1-I:C, II:1-II:C; linker I:N-II:N via Actinocin(9to1))
- TGFβ2 mRNA expression in SSc fibroblasts under treatment [1]: completely normalized
- TGFβ1 mRNA expression (TGFβ1 mRNA expression): did not significantly alter
- TGFβ3 mRNA expression (TGFβ3 mRNA expression): did not significantly alter

Molecule: Cc1sc2c(c1C)C(c1ccc(Cl)cc1)=N[C@@H](CC(=O)OC(C)(C)C)c1nnc(C)n1-2 [JQ1]
- TGFβ2 mRNA expression in SSc fibroblasts after drug removal [1]: sustained repression; also recorded: sustained suppression; also recorded: maintained even after drug removal
- TGFβ2 mRNA expression in SSc fibroblasts under treatment [1]: rapidly normalized; also recorded: decreased
- TGFβ2 mRNA induction by exogenous TGFβ2 ligand under co-treatment ([1]; co-stimulation with TGFβ2 ligand (10 ng/mL)): failed to induce TGFβ2 mRNA expression
- TGFβ2 mRNA expression in SSc fibroblasts after a single 48 hr regiment ([1]; single 48 hr regiment): permanently normalizes
- fibrotic synthetic repertoire (FSR) in SSc cells ([2]; e.g. COL1A1, SERPINH1): normalization
- collagen expression in SSc fibroblasts ([2]; mRNA, RT-qPCR): rapidly normalized; also recorded: normalizes
- TGFβ2 protein levels in SSc fibroblasts (TGFβ2 protein): rapidly normalized; also recorded: normalizes
- BRD4 occupancy at the TGFB2 enhancer [3, 5]: complete normalization; also recorded: normalizes
- H3K27ac at the TGFB2 enhancer [3, 5]: complete normalization; also recorded: normalizes
- BRD4 occupancy at the TGFB2 enhancer after drug removal [3, 6]: continued normalization; also recorded: sustained normalization
- H3K27ac at the TGFB2 enhancer after drug removal [3, 6]: continued normalization; also recorded: sustained normalization
- P300 occupancy at the TGFB2 enhancer after drug removal [3, 6]: continued normalization; also recorded: sustained normalization
- chromatin accessibility at the TGFB2 enhancer [4]: complete normalization; also recorded: normalizes
- transcriptomic differences between control and SSc fibroblasts (RNA-seq) (SSc fibroblasts; N=2): significantly mitigated transcriptomic differences
- clustering in principal component analysis of RNA-seq (SSc fibroblasts; PC1, 67% of total variance): cluster together with control samples in PC1; also recorded: cluster with control fibroblasts
- binding at the TGFB2 enhancer (Chem-seq) (TGFB2 enhancer): specifically bound to the TGFB2 enhancer; also recorded: specific binding

Molecule: CC(C)(C)c1ccc(S(=O)(=O)/C=C/C#N)cc1 [BAY 11-7085]
- TGFβ2 mRNA expression in SSc fibroblasts after drug removal [1]: sustained normalization
- TGFβ2 mRNA expression in SSc fibroblasts after drug removal ([1]; listed as BAY 11-70585): sustained repression
- TGFβ2 mRNA expression in SSc fibroblasts under treatment [1]: robustly suppressed
- TNFα-induced TGFB2 mRNA expression under co-treatment ([1]; co-treatment with TNFα): prevents TGFB2 induction

Molecule: COc1ccc(CCc2nc3cc(-c4c(C)noc4C)ccc3n2C[C@H](C)N2CCOCC2)cc1Cl [SGC-CBP30]
- TGFβ2 mRNA expression in SSc fibroblasts after drug removal [1]: rebounded to steady-state levels
- TGFβ2 mRNA expression in SSc fibroblasts under treatment [1]: normalized TGFβ2 expression in SSc fibroblasts to levels comparable to that of controls; also recorded: suppressed; also recorded: decrease TGFβ2 expression in Scleroderma cells to levels comparable to that of control
- TGFβ2 mRNA expression in SSc fibroblasts under treatment ([1]; listed as SGC-CBP300): specifically decrease
- TGFβ2 mRNA level in SSc cells compared to control after drug removal ([1]; after 72 hours of treatment and drug removal): 3 fold
- P300 occupancy of the TGFB2 enhancer under treatment ([3]; SSc fibroblasts, 72 hours): suppressed
- P300 occupancy at the TGFB2 enhancer after drug removal [3, 6]: re-establish high P300 occupancy; also recorded: rebounded to steady-state levels
- TGFβ1 mRNA expression (TGFβ1 mRNA expression): not TGFβ1 or TGFβ3
- TGFβ3 mRNA expression (TGFβ3 mRNA expression): not TGFβ1 or TGFβ3
- cell toxicity (Scleroderma cells): minimal cell toxicity

B1: TGFβ2 ligand: exogenous TGFβ2 ligand (10 ng/mL) (protein, UniProt P61812 303-414, looked up)
Transforming growth factor …: ALDAAYCFRNVQDNCCLRPLYIDFKRDLGWKWIHEPKGYNANFCAGACPYLWSSDTQHSRVLSLYNTINPEASASPCCVSQDLEPLTILYYIGKTPKIEQLSNMIVKSCKCS
- TGFβ2 mRNA expression upon stimulation with cytokine/ligand [1]: pronounced further increase in TGFβ2 mRNA
